Experimental data as given in patent US6541488B1, “Compositions for treating arterial thrombosis and a factor Xa inhibitor” (Sanofi-Synthelabo, priority 1997, dated 2003).
Read-outs that look alike come from different tables or passages of the source.

How the values were obtained:
[1] = tested on: arterial thrombosis; assay: Arterial thrombosis induced by electrical stimulation of the left common carotid in rabbits, blood flow rate measured; format: in vivo; details: rabbit; for effect on reduction in carotid blood flow rate: 45 min observation
Description: New Zealand male rabbits weighing 2.7 to 3 kg, obtained from the Lago breeding unit (France) were used. They were housed under standard conditions.
The formation of the thrombus was induced by external electrical stimulation of the left common carotid according to the Hladovec I. et al. method (Experimental arterial thrombosis in rats with continuous registration, Throm. Diathes. Haemor. 1971; 26: 407-410). The rabbits were anaesthetized with pentobarbital at the dose of 30 mg/kg iv. A segment of the left carotid artery was exposed and insulated by a piece of insulating film. Electrodes were inserted under the artery. A partial stricture inducing a 20% reduction in flow rate was made in the artery. The latter was then stimulated with the aid of a 2.5 mA current delivered by a constant current stimulator for 3 minutes. The thrombotic occlusion was evaluated by continuous measurement of the flow rate of blood in the carotid by means of an NARCO electromagnetic flow meter. This measurement was made over an observation period of 45 minutes.
For the treatment, solutions of SR 90107/ORG 31540 and of SR 121787A were prepared immediately before use in a saline solution. The solutions of SR 90107/ORG 31540 were injected by the IV route 5 minutes before induction of thrombosis in a volume of 1 ml/kg. SR 121787A was dadministered by the oral route 2 hours earlier.
The results were calculated and expressed as % reduction in blood flow rate at various times relative to time 0. They are grouped together in FIG. 1.

[2] = tested on: activated factor X (Xa); assay: Neutralization of activated factor X (Xa) by antithrombin III; format: biochemical
[3] = molecular target: thrombin (Homo sapiens, UniProt P00734); assay: Activity on thrombin; format: biochemical
[4] = tested on: human plasma; assay: Activated partial thromboplastin time (APTT) test on human plasma
[5] = tested on: platelet aggregation; assay: Platelet aggregation induced by ADP or collagen; format: cell-based
[6] = AMES test
[7] = DNA repair test
[8] = tested on: induced thromboses; details: rats; i.v. and s.c. administration; cited from earlier work
[9] = tested on: induced thromboses; details: rats; i.v. and s.c. administration; cited from earlier work; remark: listed apart in the source
[10] = tested on: induced thromboses; details: rabbits; i.v. and s.c. administration; cited from earlier work
[11] = rats, cited from earlier work
[12] = Toxicity studies with repeated assays; details: any animal species; repeated assays over 4 weeks with up to 10 mg/kg subcutaneously

Row | Molecule | effect on course of the carotid output ([1]; oral dose 10 mg/kg 2 hours before, sole active ingredient) | effect on drop of the carotid output ([1]; oral dose 20 mg/kg 2 hours before, sole active ingredient) | effect on reduction in carotid blood flow rate ([1]; 300 nmol/kg IV 5 minutes before induction of thrombosis) | effect on reduction in carotid blood flow rate ([1]; 600 nmol/kg IV 5 minutes before induction of thrombosis) | catalysis of neutralization of factor Xa by antithrombin III [2] | activity on thrombin [3] | modification of activated partial thromboplastin time (APTT) [4] | potentiation of platelet aggregation induced by ADP ([5]; ADP) | potentiation of platelet aggregation induced by collagen ([5]; collagen) | mutagenicity in the AMES test [6] | mutagenicity in the DNA repair test [7] | antithrombotic effects [8] | antithrombotic effects [9] | antithrombotic effects [10] | loss of blood ([11]; 21.7 mg/kg (high dose)) | increase of blood loss compared with standard heparin or LMWHs [11] | toxicological effect [12]
1 | CCOC(=O)CCN(c1nc(-c2ccc(/C(N)=N/C(=O)OCC)cc2)cs1)C1CCN(CC(=O)OCC)CC1 [SR 121787A, ethyl N-(1-ethoxycarbonylmethylpiperidin-4-yl)-N-{4-[4-{(N-ethoxycarbonylimino)(amino)methyl}phenyl]thiazol-2-yl}-3-aminopropionate] | did not significantly modify | almost completely inhibited | – | – | – | – | – | – | – | – | – | – | – | – | – | – | –
2 | methyl O-(2-deoxy-2-sulphoamino-6-O-sulfo-α-D-glucopyranosyl)-(1→)-O-(β-D-glucopyranosyluronic acid)-(1→4)-O-(2-deoxy-2-sulphoamino-3,6-di-O-sulpho-α-D-glucopyranosyl-(1→4)-O-(2-O-sulpho-Ε-L-idopyranosyl-uronic acid)-(1→4)-2-deoxy-2-sulphoamino-6-O-sulpho-α-D-glucopyranoside [SR 90107/ORG 31540] | – | – | no influence | reduced it slightly but not significantly | can be catalysed | completely devoid | hardly modifies | does not potentiate | does not potentiate | not mutagenic | not mutagenic | demonstrated | demonstrated | demonstrated | identical to that observed with 200 units anti-Xa/kg of heparin | only slightly increases blood loss | No toxicological effect
